Data: patent US4698350A, “1-ethyl-6-fluoro-1,4-dihydro- 7-(2,6-dimethyl-4-pyridinyl)-4-oxo-3-quinolinecarboxylic acid and antibacterial use thereof” (Sterling Drug Inc., priority 1984, dated 1987)
Structures can show the parent of a compound that is named as a salt. Where two headings read alike, the source gives them in different places.

How the values were obtained:
Test in all cases: In vitro antibacterial MIC/MBC test
Assay type in all cases: cell-based
[1] = tested on: S. aureus (25923); conditions: Staphylococcus aureus, ATCC25923
Protocol: (§1) Win 52,522 and Win 35,439 were solubilized in 0.1 ml of 0.5 N NaOH/mg of compound and diluted in sterile distilled water to 160 mcg/ml. Vancomycin and methicillin were solubilized in sterile distilled water to 1250 mcg/ml of base compound. The stock solutions were sterilized by filtration through membrane filters with a 0.45 μm pore size.
(§2) The bacterial cultures listed in Table I (hereinbelow) were grown overnight at 37° C. in MHB for all cultures except the Streptococcus strains. These were grown in BHI+10% NHS. The overnight broth cultures were adjusted to an optical density of 0.10 (650 nm, B L Spectronic 20) in sterile distilled water and subsequently diluted to 6.7×10^6 cells/ml in MHB or BHI+1% NHS.
(§3) Serial two-fold dilutions of the compound solutions were prepared in MHB (or in BHI+1% NHS for tests with Streptococci) and dispensed into 96-well microtiter trays in a volume of 0.1 ml/well using a Sandy Springs (Bellco Glass Co.) dispenser. The trays were then inoculated with 0.0015 ml of a suspension containing 6.7×10^6 cells/ml of the appropriate inoculum using a MIC-2000 inoculator (Dynatech Corp.) resulting in a final inoculum of approximately 1×10^4 cells/well or 1×10^5 cells/ml. The trays were incubated at 37° C. for 18-20 hours and the minimal inhibitory concentration (MIC), defined as the lowest concentration of compound to inhibit visible bacterial growth, was recorded.
(§4) After the MIC values were recorded, the contents in the microtiter trays were thoroughly mixed on a Bellco Mini-orbital Shaker (Bellco Glass Co.) for 3 min. at a setting of 8. A portion (0.0015 ml) from each well was then transferred via an MIC-2000 inoculator to plates containing MHA or BHI agar+10% NHS. The plates were incubated at 37° C. for 18-20 hrs. The minimal bactericidal concentration (MBC), defined as the lowest concentration of compound that prevented the formation of a recognizable colony on the agar surface, was recorded.

[2] = tested on: S. aureus 10-81; conditions: Staphylococcus aureus, 1081
Protocol: as §1, §2, §3, §4

[3] = tested on: S. aureus 13-8-A; conditions: Staphylococcus aureus, 138A
Protocol: as §1, §2, §3, §4

[4] = tested on: S. aureus 24-81; conditions: Staphylococcus aureus, 2481
Protocol: as §1, §2, §3, §4

[5] = tested on: S. aureus 34-81; conditions: Staphylococcus aureus, 3481
Protocol: as §1, §2, §3, §4

[6] = tested on: S. aureus 39881; conditions: Staphylococcus aureus
Protocol: as §1, §2, §3, §4

[7] = tested on: S. aureus 4-81; conditions: Staphylococcus aureus, 481
Protocol: as §1, §2, §3, §4

[8] = tested on: S. aureus 41-81; conditions: Staphylococcus aureus, 4181
Protocol: as §1, §2, §3, §4

[9] = tested on: S. aureus 59-81; conditions: Staphylococcus aureus, 5981
Protocol: as §1, §2, §3, §4

[10] = tested on: S. aureus Glorgio; conditions: Staphylococcus aureus
Protocol: as §1, §2, §3, §4

[11] = tested on: S. aureus S-234; conditions: Staphylococcus aureus, S234
Protocol: as §1, §2, §3, §4

[12] = tested on: S. aureus S-500; conditions: Staphylococcus aureus, S500
Protocol: as §1, §2, §3, §4

[13] = tested on: S. aureus Smith; conditions: Staphylococcus aureus
Protocol: as §1, §2, §3, §4

[14] = tested on: S. aureus VA16951; conditions: Staphylococcus aureus
Protocol: as §1, §2, §3, §4

[15] = tested on: S. epidermidis (12228); conditions: Staphylococcus epidermidis, ATCC12228
Protocol: as §1, §2, §3, §4

[16] = tested on: S. epidermidis (17917); conditions: Staphylococcus epidermidis, ATCC17917
Protocol: as §1, §2, §3, §4

[17] = tested on: S. epidermidis 1-3-H; conditions: Staphylococcus epidermidis, 13H
Protocol: as §1, §2, §3, §4

[18] = tested on: S. faecalis (11700); conditions: Enterococcus faecalis, ATCC11700
Protocol: as §1, §2, §3, §4

[19] = tested on: S. faecalis (8043); conditions: Enterococcus faecalis, ATCC8043
Protocol: as §1, §2, §3, §4

[20] = tested on: S. faecalis 4510; conditions: Enterococcus faecalis
Protocol: as §1, §2, §3, §4

[21] = tested on: S. pneumoniae Type I; conditions: Streptococcus pneumoniae
Protocol: as §1, §2, §3, §4

[22] = tested on: S. pyogenes (89); conditions: Streptococcus pyogenes
Protocol: as §1, §2, §3, §4

COc1cccc(OC)c1C(=O)N[C@@H]1C(=O)N2[C@@H]1SC(C)(C)[C@@H]2C(=O)O [Methicillin, 6-(2,6-dimethoxybenzamido)penicillanic acid sodium salt]
125 µg/mL: MIC ([6]; S. aureus 39881, read-out: MIC)
≤ 0.06 µg/mL: MBC ([21]; S. pneumoniae Type I, read-out: MBC) | MIC ([21]; S. pneumoniae Type I, read-out: MIC) | MBC ([22]; S. pyogenes SWRI No. 89, read-out: MBC) | MIC ([22]; S. pyogenes SWRI No. 89, read-out: MIC)
1 µg/mL: MIC ([3]; S. aureus 13-8-A, read-out: MIC) | MIC ([4]; S. aureus 24-81, read-out: MIC) | MIC ([5]; S. aureus 34-81, read-out: MIC) | MBC ([8]; S. aureus 41-81, read-out: MBC) | MIC ([8]; S. aureus 41-81, read-out: MIC) | MBC ([13]; S. aureus Smith, read-out: MBC) | MIC ([13]; S. aureus Smith, read-out: MIC)
64 µg/mL: MBC ([9]; S. aureus 59-81, read-out: MBC) | MBC ([18]; S. faecalis ATCC No. 11700, read-out: MBC) | MIC ([18]; S. faecalis ATCC No. 11700, read-out: MIC) | MBC ([20]; S. faecalis 4510, read-out: MBC) | MIC ([20]; S. faecalis 4510, read-out: MIC)
16 µg/mL: MBC ([2]; S. aureus 10-81, read-out: MBC)
4 µg/mL: MBC ([10]; S. aureus Glorgio, read-out: MBC) | MIC ([14]; S. aureus VA16951, read-out: MIC) | MBC ([15]; S. epidermidis ATCC No. 12228, read-out: MBC) | MIC ([15]; S. epidermidis ATCC No. 12228, read-out: MIC) | MBC ([16]; S. epidermidis ATCC No. 17917, read-out: MBC) | MIC ([16]; S. epidermidis ATCC No. 17917, read-out: MIC) | MBC ([17]; S. epidermidis 1-3-H, read-out: MBC)
8 µg/mL: MIC ([2]; S. aureus 10-81, read-out: MIC) | MIC ([11]; S. aureus S-234, read-out: MIC) | MIC ([12]; S. aureus S-500, read-out: MIC) | MBC ([14]; S. aureus VA16951, read-out: MBC)
32 µg/mL: MIC ([9]; S. aureus 59-81, read-out: MIC) | MBC ([11]; S. aureus S-234, read-out: MBC) | MBC ([12]; S. aureus S-500, read-out: MBC)
> 125 µg/mL: MBC ([6]; S. aureus 39881, read-out: MBC) | MBC ([19]; S. faecalis ATCC No. 8043, read-out: MBC) | MIC ([19]; S. faecalis ATCC No. 8043, read-out: MIC)
2 µg/mL: MBC ([1]; S. aureus ATCC No. 25923, read-out: MBC) | MIC ([1]; S. aureus ATCC No. 25923, read-out: MIC) | MBC ([3]; S. aureus 13-8-A, read-out: MBC) | MBC ([4]; S. aureus 24-81, read-out: MBC) | MBC ([5]; S. aureus 34-81, read-out: MBC) | MBC ([7]; S. aureus 4-81, read-out: MBC) | MIC ([7]; S. aureus 4-81, read-out: MIC) | MIC ([10]; S. aureus Glorgio, read-out: MIC) | MIC ([17]; S. epidermidis 1-3-H, read-out: MIC)

CN[C@H](CC(C)C)C(=O)N[C@H]1C(=O)N[C@@H](CC(N)=O)C(=O)N[C@H]2C(=O)N[C@H]3C(=O)N[C@H](C(=O)N[C@H](C(=O)O)c4cc(O)cc(O)c4-c4cc3ccc4O)[C@H](O)c3ccc(c(Cl)c3)Oc3cc2cc(c3O[C@@H]2O[C@H](CO)[C@@H](O)[C@H](O)[C@H]2O[C@H]2C[C@](C)(N)[C@H](O)[C@H](C)O2)Oc2ccc(cc2Cl)[C@H]1O [Vancomycin]
16 µg/mL: MBC [21] | MIC [21] | MBC [22] | MIC [22]
1 µg/mL: MBC [1] | MIC [1] | MBC [2] | MIC [2] | MBC [6]; 39881 | MIC [6]; 39881 | MBC [8] | MIC [8] | MBC [9] | MIC [9] | MBC [10] | MIC [10] | MBC [11] | MIC [11] | MBC [12] | MIC [12] | MBC [13] | MIC [13] | MBC ([14]; VA16951) | MIC ([14]; VA16951) | MBC [15] | MIC [15] | MBC [16] | MIC [16] | MBC [17] | MIC [17] | MIC [18] | MIC [19]
0.5 µg/mL: MBC [3] | MIC [3] | MBC [4] | MIC [4] | MBC [5] | MIC [5] | MBC [7] | MIC [7]
> 125 µg/mL: MBC [18] | MBC [19] | MBC [20]; 4510
2 µg/mL: MIC [20]; 4510
